Earlier results, collected in patent US20250340540A1, “Crystal Forms Of HS378 And Preparation Method Therefor” (priority 2022, published 2025).

Tested on: novel coronavirus
Conditions: mouse, in vivo; cited from earlier work

For CC(C)(C)[C@H](NC(=O)C(F)(F)F)C(=O)N1C[C@H]2[C@@H]([C@H]1C(=O)N[C@H](C#N)C[C@@H]1CCNC1=O)C2(C)C [HS378, (1R, 2S, 5S)-N-{(1S)-1-cyano-2-[(3S)-2-oxopyrrolidin-3-yl]-ethyl}-6,6-dimethyl-3-[3-methyl-N-(trifluoroacetyl)-L-valyl]-3-azabicyclo [3.1.0]hexane-2-carboxamide], the Oral activity is listed as “Oral activity was demonstrated”.
